Assay results: US5126057A, “Disinfecting with N,N'-dihaloimidazolidin-4-ones” (Auburn Research Foundation, priority 1991, dated 1992)
Values after ≈ are worked out from the molar mass of the structure shown.

Experiments:
Format in all cases: physicochemical
[1] = physchem; details: for solubility: water, solubility in water
Method: In method (a) 47.4 grams (0.3 mole) of 2,2,5,5-tetramethylimidazolidine-4-thione was dissolved in 1.2 liters of 3 Normal sodium hydroxide solution (3.6 moles) in a 2 liter flask. The flask and its contents were cooled to 5° C. using an ice bath, and chlorine gas was bubbled into the mixture while stirring until the pH of the solution reached 7.0. The temperature of the mixture was not allowed to rise above 10° C. during this process. The N,N'-dichloroimidazolidin-4-one product precipitated as a white solid. Following addition of 800 milliliters of water to the flask, the solid product was recovered by suction filtration. The product was then purified by dissolving it in hexane, allowing the impurities and remaining water to settle, and recovery by evaporation of the volatile hexane layer which was separated from the impurity/water layer. The product yield was 53.9 grams or 85% of that theoretically expected. Elemental analysis of the product (1,3-dichloro-2,2,5,5-tetramethylimidazolidin-4-one) gave the following results: (calculated/found) % carbon 39.82/39.86, % hydrogen 5.73/5.50, % nitrogen 13.27/13.24, and % chlorine 33.59/32.88. […] Analysis of the product by proton NMR and infrared spectroscopy yielded the following results:
5.1 Grams (0.036 mole) of 2,2,5,5-tetramethylimidazolidin-4-one prepared as in example 2 was dissolved in 88 milliliters of 1 Normal sodium hydroxide solution (0.088 mole) in a 250 milliliter flask. While maintaining this mixture at 10° C. or below using an ice bath and stirring, 12.8 grams (0.08 mole) of liquid bromine was added dropwise. The product 1,3-dibromo-2,2,5,5-tetramethylimidazolidin-4-one precipitated from the mixture as a pale yellow solid. The product was recovered by suction filtration and purified by recrystallization from hexane. The product yield was 9.2 grams or 85% of that theoretically expected. Elemental analysis of the product (1,3-dibromo-2,2,5,5-tetramethylimidazolidin-4-one) gave the following results: (calculated/found) % carbon 28.00/27.80, % hydrogen 4.00/4.07, % nitrogen 9.33/9.39, and % bromine 53.33/52.09. […] Analysis of the product by proton NMR and infrared spectroscopy yielded the following results:
6.4 Grams (0.045 mole) of 2,2,5,5-tetramethylimidazolidin-4-one prepared as in example 2 was dissolved in 55 milliliters of 1 Normal sodium hydroxide solution (0.055 mole) in a 250 milliliter flask. While maintaining the reaction mixture at a temperature of 5°-10° C. by use of an ice bath and stirring, 4.0 grams (0.025 mole) of liquid bromine was added dropwise. The reaction mixture was stirred at ice bath temperature for an additional 1 hour and then for 1-2 hours at cold water bath conditions (10°-20° C.). Following cooling the mixture below 10° C. again, 50 milliliters of 1 Normal sodium hydroxide solution (0.05 mole) was added, and chlorine gas was bubbled in while stirring at 5°-10° C. until the pH reached 6-7. The 1-bromo-3-chloro-2,2,5,5-tetramethylimidazolidin-4-one product precipitated as a white solid. The product was recovered by suction filtration and purified by recrystallization from hexane. The product yield was 11.2 grams or 97% of that theoretically expected. Elemental analysis of the product gave the following results: (calculated/found) % carbon 32.88/32.68, % hydrogen 4.70/4.74, % nitrogen 10.96/10.83, % bromine 31.31/33.37, % chlorine 13.89/12.67. The rather high and low found values as compared to the theoretical values for bromine and chlorine, respectively, indicate that the product was contaminated with a small amount of 1,3-dibromo-2,2,5,5-tetramethylimidazolidin-4-one. […] Analysis of the product by proton NMR and infrared spectroscopy yielded the following results: […]

[2] = Laboratory stability in halogen demand-free water (DFW), iodometric titration; details: for Percent Chlorine Remaining: DFW, 22° C.
Method: The stability of 1,3-dichloro-2,2,5,5-tetramethylimidazolidin-4-one (Compound 1) in halogen demand-free water was determined at 22° C. and pH values of 4.5, 7.0, and 9.5, and the results were compared to those for free chlorine as supplied by calcium hypochlorite. The demand-free water (DFW) was prepared by chlorination of distilled, deionized water buffered to the appropriate pH followed by dechlorination (of the excess free chlorine) by exposure to direct sunlight until no free chlorine remained. This treatment insured that all halogen demand in the water was neutralized. Then Compound 1 and calcium hypochlorite were separately dissolved in identical DFW (buffered to an appropriate pH) solutions to the same final total chlorine concentrations (10 milligrams per liter potential positive chlorine). The solutions in separate flasks, which were stoppered with porous, sterile cotton plugs to allow free exchange with laboratory air, were then held at a constant temperature of 22° C. by means of a controlled water bath for a period of several weeks. Aliquots were withdrawn periodically (at least weekly), and the total positive chlorine remaining was determined in triplicate by standard iodometric titration. […]
The stabilities of 1,3-dibromo-2,2,5,5-tetramethylimidazolidin-4-one (Compound 4) and 1-bromo-3-chloro-2,2,5,5-tetramethylimidazolidin-4-one (Compound 5) in halogen demand-free water (DFW) were determined at 22° C. and pH values of 7.0 and 9.5 using the same procedures as discussed under example 9. Given the instability of Compound 1 at pH 4.5 (example 9), it was deemed unnecessary to test compounds 4 and 5 at that pH. The two compounds were dissolved in DFW buffered to the appropriate pH in separate flasks and held at a temperature of 22° C. by means of a constant temperature bath. The starting concentrations of total potential positive halogen in the two solutions were 22.6 milligrams per liter for Compound 4 and 16.25 milligrams per liter for Compound 5; these concentrations represent the molar equivalents in total potential positive halogen to that used for Compound 1 in example 9. The solutions were analyzed in the manner described in example 9.

[3] = Stability in synthetic halogen demand water (SDW); details: SDW, 4° C.
Method: A synthetic halogen demand water (SDW) was prepared by mixing the following substances with demand-free water (DFW): 375 milligrams per liter of each of the inorganic salts sodium chloride, potassium chloride, calcium chloride, and magnesium chloride; 50 milligrams per liter of Bentonite clay; 30 milligrams per liter of humic acid; 0.01 percent final concentration of heat-treated horse serum; and 5×10^5 cells per milliliter of heat-killed Saccharomyces cerevisiae yeast cells. The SDW solution was buffered with 0.01 Molar borate/sodium hydroxide to a pH of 9.5 and held at 4° C. during the experiments. The conditions of high ionic strength, turbidity, and organic material, and alkaline pH at low temperature, are viewed as a worst-case scenario for disinfection applications and thus should provide the optimum test of stability for the new compounds.
In separate flasks were dissolved compounds 1, 2, 3, and 5 to a starting concentration of 10 milligrams per liter total potential positive chlorine or its molar equivalent (16.25 milligrams per liter) in total potential positive halogen for Compound 5. Aliquots were withdrawn frequently over a period of more than 90 hours, and the percent positive halogen remaining was determined by standard iodometric titration.

[4] = Stability in demand-free water exposed to direct sunlight; details: DFW, direct sunlight, 22-24° C.
Method: The stabilities of compounds 1,5, and free chlorine from calcium hypochlorite (Compound 2) in water exposed to direct sunlight were determined. Each compound at the 10 milligrams per liter total chlorine concentration level (or at the molar equivalent for total halogen for Compound 5) was dissolved in 85 milliliters of demand-free water buffered at pH 7.0 in separate 100 milliliter beakers which were placed in a temperature-controlled water bath (22°-24° C.), and the bath containing the solutions was placed on the roof of the chemistry building at Auburn University exposed to direct sunlight during August 1988. Total potential positive halogen assays were made periodically on aliquots withdrawn over a 10 hour period using the standard iodometric titration technique.

## CC1(C)C(=O)N(Br)C(C)(C)N1Br [1,3-dibromo-2,2,5,5-tetramethylimidazolidin-4-one]
[1]
  solubility in water: 0.120 grams in 100 milliliters of water
  solubility: 0.72 mg/mL (≈ 2.4 mM)

## CC1(C)C(=O)N(Cl)C(C)(C)N1Br [1-bromo-3-chloro-2,2,5,5-tetramethylimidazolidin-4-one]
[1]
  solubility in water: 0.193 grams in 100 milliliters of water
  solubility: 1.02 mg/mL (≈ 3.99 mM)

## [Ca+2].[O-]Cl.[O-]Cl [Compound 2, calcium hypochlorite, reference compound]
[2]; pH 4.5 (acetate), 1 week, 10080 min
  Percent Chlorine Remaining: 91.8%
[2]; pH 4.5 (acetate), 2 weeks, 20160 min
  Percent Chlorine Remaining: 86.2%
[2]; pH 4.5 (acetate), 3 weeks, 30240 min
  Percent Chlorine Remaining: 80.8%
[2]; pH 4.5 (acetate), 4 weeks, 40320 min
  Percent Chlorine Remaining: 76.4%
[2]; pH 4.5 (acetate), 5 weeks, 50400 min
  Percent Chlorine Remaining: 71.5%
[2]; pH 4.5 (acetate), 6.14 weeks, 61891.2 min
  Percent Chlorine Remaining: 65.0%
[2]; pH 7.0 (phosphate), 1 week, 10080 min
  Percent Chlorine Remaining: 91.8%
[2]; pH 7.0 (phosphate), 2 weeks, 20160 min
  Percent Chlorine Remaining: 85.0%
[2]; pH 7.0 (phosphate), 3 weeks, 30240 min
  Percent Chlorine Remaining: 79.6%
[2]; pH 7.0 (phosphate), 4 weeks, 40320 min
  Percent Chlorine Remaining: 70.6%
[2]; pH 7.0 (phosphate), 5 weeks, 50400 min
  Percent Chlorine Remaining: 63.4%
[2]; pH 7.0 (phosphate), 6.14 weeks, 61891.2 min
  Percent Chlorine Remaining: 54.7%
[2]; pH 9.5 (borate/NaOH), 1 week, 10080 min
  Percent Chlorine Remaining: 88.9%
[2]; pH 9.5 (borate/NaOH), 2 weeks, 20160 min
  Percent Chlorine Remaining: 79.0%
[2]; pH 9.5 (borate/NaOH), 3 weeks, 30240 min
  Percent Chlorine Remaining: 71.2%
[2]; pH 9.5 (borate/NaOH), 4 weeks, 40320 min
  Percent Chlorine Remaining: 60.3%
[2]; pH 9.5 (borate/NaOH), 5 weeks, 50400 min
  Percent Chlorine Remaining: 50.1%
[2]; pH 9.5 (borate/NaOH), 6.14 weeks, 61891.2 min
  Percent Chlorine Remaining: 38.5%
[3]; pH 9.5, 0.5 hrs
  Percent Halogen Remaining: 51.5%
[3]; pH 9.5, 1.0 hrs
  Percent Halogen Remaining: 46.4%
[3]; pH 9.5, 2.5 hrs
  Percent Halogen Remaining: 39.6%
[3]; pH 9.5, 4.2 hrs
  Percent Halogen Remaining: 39.6%
[3]; pH 9.5, 7.5 hrs
  Percent Halogen Remaining: 36.2%
[3]; pH 9.5, 24.0 hrs
  Percent Halogen Remaining: 31.3%
[3]; pH 9.5, 76.5 hrs
  Percent Halogen Remaining: 21.5%
[4]; pH 7.0, 3.0 hrs
  Percent Halogen Remaining: 26.0%
[4]; pH 7.0, 5.0 hrs
  Percent Halogen Remaining: 6.9%
[4]; pH 7.0, 10.0 hrs
  Percent Halogen Remaining: 0.0%

## CC1(C)C(=O)N(Br)C(C)(C)N1Br [Compound 4, 1,3-dibromo-2,2,5,5-tetramethylimidazolidin-4-one]
[2]; demand-free water, pH 9.5
  remaining at 23.52 h: 91.4%
  remaining at 72.24 h: 71%
  remaining at 168 h: 36%
  remaining at 336 h: 4.8%
